Test results reported in patent US20240165209A1, “PLACENTAL ALKALINE PHOSPHATASE FOR REDUCING THE LOSS OF RED BLOOD CELLS, WHITE BLOOD CELLS, AND PLATELETS IN CHEMOTHERAPY TREATED CANCER PATIENTS” (ZOLTAN LABORATORIES, LLC, priority 2021, published 2024).

Legend:
[1] = system: mouse bone marrow-derived hematopoietic stem cells (HSCs); conditions: 200 μM Cyp, 3 days, absence of PLAP
Procedure: Bone marrow was harvested by flushing bones from female C57/BL/6 mice in Fischer medium (Thermo Fisher Scientific; catalogue no. 21475025) containing 20% horse serum (Hyclone, Logan, UT), 100 Unit/ml penicillin, […] streptomycin (Gibco, BRL), 0.015 fungizone (Gibco, BRL), and 0.1 μM hydrocortisone sodium succinate (SynoPharm; Hamburg, Germany). Pooled stem cells were seeded into 25 cm 3 flasks (10 ml cell suspension) and after 3 days of incubation at 33° C. in 5% CO2 in air in the absence of PLAP, they were plated into 12-well plates and were incubated in the absence (n=8) or presence of 50 μg/ml PLAP (n=8) for additional 3 days.
In a follow up experiment with hematopoietic stem cells, the same incubation medium in 12-well plates contained either no other addition (n=8) or contained 200 μM Cyp without (n=8) or with 50 μg/ml PLAP (n=8) for 3 days.

[2] = system: blood cells (RBCs, WBCs, platelets) of T47D tumor bearing mice; test: Experiment 2: blood cell counts in Cyp-treated T47D tumor bearing mice, last sample day 10; assay type: in vivo, mouse; conditions: Cyp 120 mg/kg, PLAP 7.5 mg/kg days 0, 2, 4, 6
Procedure: (§1) In the two experiments performed, first-generation hybrid BDF1 (C57BL/6 female×DBA/2 male) 10 weeks old adult female mice bearing T47D tumors (2.6-3.3 cm 3 volume) were used.
The second experiment was performed with T47D tumor bearing mice similarly to the one described to TABLE 2, except that one group of Cyp (120 mg/kg) treated mice were co-treated treated with PLAP (7.5 mg/kg) on days 0, 2, 4, and 6. […] The data shown is the average of 6 independent determinations±S.D.

[3] = system: blood cells (RBCs, WBCs, platelets) of T47D tumor bearing mice; test: Experiment 1: blood cell counts in Cyp-treated T47D tumor bearing mice, last sample day 9; assay type: in vivo, mouse; conditions: Cyp 120 mg/kg i.p. daily x6, PLAP 7.5 mg/kg s.c. days 0, 3, 6
Procedure: as §1
In the first group, mice received no treatment. In the second and third groups, mice were administered 120 mg/kg of cyclophosphamide (Cyp) intraperitoneally once a day for 6 consecutive days administered between 10-10.30 AM. In a third group, mice were also administered 7.5 mg/kg of PLAP subcutaneously on days 0, 3 and 6 between 9-9.30 AM. In each group, mice were kept on standard diet (˜15% fat, 65% carbohydrate, and 20% proteins) purchased from Charles River VRFI. Both PLAP (for the 3rd group) and Cyp were dissolved in physiological (0.9%) saline and injected in 50 μl volume. […] The data shown is the average of 6 independent determinations ±S.D.

[4] = system: granulocyte-macrophage colony-forming units (CFU-GM); test: Granulocyte-macrophage colony-forming units (CFU-GM), semisolid colony-forming cell assay, Cyp treated T47D tumor bearing mice; assay type: in vivo, mouse; conditions: for CFU-GM/10^5 nucleated BM cells: Cyp 120 mg/kg i.p. daily x6, PLAP 7.5 mg/kg s.c. days 0, 2, 4, 6; for CFU-GM per femur: calculated: nucleated cells in the femur x CFU-GM
Procedure: (§2) Again, first-generation hybrid BDF1 (C57BL/6 female×DBA/2 male) 10 weeks old adult female mice bearing T47D tumors (2.6-3.3 cm^3) were used. In the first group, mice received no treatment. In the second and third groups, mice were administered 120 mg/kg of Cyp intraperitoneally once a day for 6 consecutive days. In a third group, mice were also administered 7.5 mg/kg of PALP subcutaneously on days 0, 2, 4 and 6. On the days indicated in TABLE 4, the animals were killed, then the bone marrow was flushed from the femurs with Iscove's modified Dulbecco's medium (Gibco BRL, Gaithersburg, MD, USA). This was followed by standard erythrocyte lysis and then by counting the number of nucleated bone marrow (BM) cells per femur using a hemocytometer.
To measure the formation of the granulocyte-macrophage colony-forming units (CFU-GM), a semisolid colony-forming cell assay was used. Equal numbers of nucleated bone marrow cells (isolated on days as indicated above) were plated in 35-mm Petri dishes (Costar, Cambridge, MA, USA) in Iscove's modified Dulbecco's medium supplemented with 1% methylcellulose, 30% horse serum (Gibco), 10% WEHI-3B conditioned medium as a source of growth factors, 4 mM L-glutamine, 0.25 mM α-thioglycerol (Gibco), 1% deionized bovine serum albumin (Sigma), and antibiotics (Gibco). Cells were cultured at 37° C. in 5% CO2/95% air atmosphere. CFU-GM was counted on day 9. Three parallel plates were used for each 3 animals (9 plates for one number). Colonies containing at least 50 cells were counted which is a generally accepted value in the literature. In TABLE 4, “CFU-GM per femur” is a calculated value derived from multiplying the number of nucleated cells in the femur with the number of CFU-GM; this number gives the number of CFU-GM in one femur. Each value is expressed as the mean±standard deviation of 9 plates (derived from 3 animals).

[5] = system: nucleated bone marrow cells (BM); test: Nucleated bone marrow (BM) cells per femur in Cyp treated T47D tumor bearing mice; assay type: in vivo, mouse; conditions: Cyp 120 mg/kg i.p. daily x6, PLAP 7.5 mg/kg s.c. days 0, 2, 4, 6
Procedure: as §2

O.O=P1(N(CCCl)CCCl)NCCCO1 (stereo not shown) [Cyp, 2-[Bis (2-chloroethyl)amino] tetrahydro-2H-1,3,2-oxazaphosphorine 2-oxide monohydrate]
decrease of the number of cells by Cyp [1]: 52% | Platelets ([2]; day 0): 1,185 ± 101^ ×10^−3/μl | RBCs ([2]; day 0): 9.51 ± 0.70 ×10^−6/μl | WBCs ([2]; day 0): 8.86 ± 0.61 ×10^−3/μl | Platelets ([2]; day 6): 372 ± 57 ×10^−3/μl | RBCs ([2]; day 6): 4.83 ± 0.62 ×10^−6/μl | WBCs ([2]; day 6): 2.79 ± 0.47 ×10^−3/μl | Platelets ([2]; day 10): 746 ± 92 ×10^−3/μl | RBCs ([2]; day 10): 6.88 ± 0.61 ×10^−6/μl | WBCs ([2]; day 10): 6.15 ± 0.45 ×10^−3/μl | Platelets ([3]; day 0): 1,114 ± 111 ×10^−3/μl | RBCs ([3]; day 0): 9.51 ± 1.09 ×10^−6/μl | WBCs ([3]; day 0): 7.92 ± 0.72 ×10^−3/μl | Platelets ([3]; day 3): 704 ± 98 ×10^−3/μl | RBCs ([3]; day 3): 7.28 ± 1.29 ×10^−6/μl | WBCs ([3]; day 3): 4.22 ± 0.85 ×10^−3/μl | Platelets ([3]; day 6): 404 ± 139 ×10^−3/μl | RBCs ([3]; day 6): 4.94 ± 0.63 ×10^−6/μl | WBCs ([3]; day 6): 2.73 ± 0.53 ×10^−3/μl | Platelets ([3]; day 9): 687 ± 114 ×10^−3/μl | RBCs ([3]; day 9): 6.26 ± 0.71 ×10^−6/μl | WBCs ([3]; day 9): 5.72 ± 0.49 ×10^−3/μl | CFU-GM/10^5 nucleated BM cells ([4]; BM isolated day 0): 78.1 ± 6.1 | CFU-GM/10^5 nucleated BM cells ([4]; BM isolated day 3): 34.5 ± 7.2 | CFU-GM/10^5 nucleated BM cells ([4]; BM isolated day 6): 25.8 ± 4.4 | CFU-GM/10^5 nucleated BM cells ([4]; BM isolated day 9): 98.5 ± 8.0 | CFU-GM per femur ([4]; day 0): 1,101 | CFU-GM per femur ([4]; day 3): 321 | CFU-GM per femur ([4]; day 6): 80 | CFU-GM per femur ([4]; day 9): 482 | Nucleated BM cells/femur ([5]; day 0): 14.11 ± 1.50 ×10^6 | Nucleated BM cells/femur ([5]; day 3): 9.32 ± 2.32 ×10^6 | Nucleated BM cells/femur ([5]; day 6): 3.10 ± 2.26 ×10^6 | Nucleated BM cells/femur ([5]; day 9): 4.90 ± 2.17 ×10^6
